# ± gives the standard deviation of the averaged measurements.
# Legend:
# Conditions in all cases: 72 h
# Calu-3 [1] = assay: cell viability relative to DMSO; higher = less toxic
# U2OS [2] = assay: as above
# Vero E6 [3] = assay: as above
# Caco-2 [4] = assay: as above
# HepG2 [5] = assay: as above
# Calu-3 [6] = assay: drug sensitivity score (DSS) for viability; higher = more toxic; extreme values may be limits of the assay
# U2OS [7] = assay: as above
# Vero E6 [8] = assay: as above
# Caco-2 [9] = assay: as above
# HepG2 [10] = assay: as above
# Calu-3 [11] = assay: relative viability EC50 (midpoint between 100% and the lowest measured viability); higher = less toxic
# U2OS [12] = assay: as above
# Vero E6 [13] = assay: as above
# Caco-2 [14] = assay: as above
# HepG2 [15] = assay: as above
SMILES,cell viability (Calu-3 [1]; 1 nM),cell viability (Calu-3 [1]; 10 nM),cell viability (Calu-3 [1]; 100 nM),cell viability (Calu-3 [1]; 1000 nM),cell viability (Calu-3 [1]; 10000 nM),cell viability (U2OS [2]; 1 nM),cell viability (U2OS [2]; 10 nM),cell viability (U2OS [2]; 100 nM),cell viability (U2OS [2]; 1000 nM),cell viability (U2OS [2]; 10000 nM),cell viability (Vero E6 [3]; 1 nM),cell viability (Vero E6 [3]; 10 nM),cell viability (Vero E6 [3]; 100 nM),cell viability (Vero E6 [3]; 1000 nM),cell viability (Vero E6 [3]; 10000 nM),cell viability (Caco-2 [4]; 1 nM),cell viability (Caco-2 [4]; 10 nM),cell viability (Caco-2 [4]; 100 nM),cell viability (Caco-2 [4]; 1000 nM),cell viability (Caco-2 [4]; 10000 nM),cell viability (HepG2 [5]; 1 nM),cell viability (HepG2 [5]; 10 nM),cell viability (HepG2 [5]; 100 nM),cell viability (HepG2 [5]; 1000 nM),cell viability (HepG2 [5]; 10000 nM),drug sensitivity score (Calu-3 [6]),drug sensitivity score (U2OS [7]),drug sensitivity score (Vero E6 [8]),drug sensitivity score (Caco-2 [9]),drug sensitivity score (HepG2 [10]),relative viability EC50 (Calu-3 [11]),relative viability EC50 (U2OS [12]),relative viability EC50 (Vero E6 [13]),relative viability EC50 (Caco-2 [14]),relative viability EC50 (HepG2 [15])
COc1cc2c(cc1OC)CN(CCc1ccc(NC(=O)c3cc(OC)c(OC)cc3NC(=O)c3cnc4ccccc4c3)cc1)CC2 [tariquidar],93.5%,94.6%,84%,101%,103%,94.9%,100%,97.2%,103%,103%,105%,94.5%,96.8%,96.4%,107%,89.2%,94.2%,99.8%,95.3%,108%,102%,90.9%,108%,93.5%,105%,0,0,0,0,0,> 10 µM,> 10 µM,> 10 µM,> 10 µM,> 10 µM
NC1CCN(c2nc3c(cc2F)c(=O)c(C(=O)O)cn3-c2ccc(F)cc2F)C1 (stereo not given) [tosufloxacin],95.1%,103%,101%,103%,124%,97.3%,104%,98.6%,102%,95%,101%,101%,108%,101%,99.7%,96%,99.9%,111%,99.4%,81.7%,88.1%,87.6%,95.9%,96.3%,78.6%,0,0,0,0.5,0,> 10 µM,> 10 µM,> 10 µM,> 10 µM,> 10 µM
C[C@@H]1C[C@H]2[C@@H]3C[C@H](F)C4=CC(=O)C=C[C@]4(C)[C@@]3(Cl)[C@@H](O)C[C@]2(C)[C@H]1C(=O)COC(=O)C(C)(C)C [clocortolone-pivalate],92.9%,88.2%,102%,96.2%,97.3%,95.7%,93%,90.1%,90.7%,93.4%,101%,90.6%,99.6%,95.4%,110%,90.6%,99.2%,91%,100%,112%,98.8%,93.6%,99.1%,103%,108%,0,0,0,0,0,> 10 µM,> 10 µM,> 10 µM,> 10 µM,> 10 µM
CC(N)Cc1c[nH]c2ccc(OCc3cccs3)cc12 (stereo not given) [BW-723C86],109%,95.6%,98.6%,104%,76.5%,102%,98.2%,99%,98.2%,96.9%,96%,94.9%,95.1%,96.1%,89.1%,99.8%,97.7%,93%,94.8%,98.8%,102%,107%,96.8%,95.5%,81%,0.7,0,0,0,1,> 10 µM,> 10 µM,> 10 µM,> 10 µM,> 10 µM
O=[N+]([O-])c1cc(Cl)ccc1S(=O)(=O)c1ccccc1 [BTB1],97.1%,98.2%,107%,103%,115%,98.5%,95.4%,102%,103%,102%,97%,94.4%,93.9%,97.9%,101%,95.8%,90.2%,97.5%,98.6%,100%,99.2%,103%,82.7%,88.1%,108%,0,0,0,0,0,> 10 µM,> 10 µM,> 10 µM,> 10 µM,> 10 µM
N[C@H]1CCN(O)C1=O [HA-966-(S)-(-)],104 ± 4.8%,95.8 ± 4.6%,99.6 ± 2.1%,94.7 ± 7.3%,97.6 ± 0.71%,97.6 ± 2.7%,96.8 ± 2%,98.5 ± 3.2%,96.9 ± 0.71%,97.2 ± 3.2%,96.8 ± 9.3%,95.3%,93.35 ± 0.35%,97.6 ± 3.4%,102 ± 4.7%,103 ± 1.2%,86.4 ± 7.8%,106 ± 5.9%,96 ± 3.5%,102 ± 5.2%,93.2%,107%,100%,104%,106%,0,0,0,0,0,> 10 µM,> 10 µM,> 10 µM,> 10 µM,> 10 µM
Oc1cc2c(cc1O)[C@@H]1c3ccc(O)c(O)c3OC[C@]1(O)C2 [hematoxylin],97.1%,103%,92.4%,110%,96.1%,98.5%,93.5%,99.2%,103%,91.1%,95.2%,99.3%,92.7%,95.5%,102%,98.4%,89.9%,93%,108%,90%,104%,100%,96.4%,104%,105%,0,0,0,0,0,> 10 µM,> 10 µM,> 10 µM,> 10 µM,> 10 µM
Cc1ccc(S(=O)(=O)N2CCC[C@H]2c2ccc(F)cc2)cc1 [Ro-67-7476],106%,101%,94.4%,98.1%,105%,98.8%,95.1%,107%,99.4%,99.2%,109%,104%,94.1%,104%,100%,96.6%,102%,102%,97.3%,104%,106%,104%,96.2%,102%,97.4%,0,0,0,0,0,> 10 µM,> 10 µM,> 10 µM,> 10 µM,> 10 µM
O=C1C(=Cc2cccnc2)C(=O)c2ccccc21 [PRT4165],104%,103%,98.4%,97.4%,95.6%,102%,98.9%,99.1%,99.6%,98.3%,96.1%,99%,103%,98.4%,87.6%,107%,86.5%,101%,87.1%,98.2%,113%,98.5%,92.1%,103%,87.6%,0,0,0.2,0,0,> 10 µM,> 10 µM,> 10 µM,> 10 µM,> 10 µM
COC(=O)N1CCN(Cc2cccc(NC(=O)Nc3ccc(C)nc3)c2F)CC1 [omecamtiv-mecarbil],92.4%,94.4%,107%,97.4%,99.9%,97%,101%,93.3%,99%,97.4%,105%,100%,104%,101%,99.1%,93%,89.7%,95.3%,96.3%,87%,105%,96.1%,100%,98.5%,97.1%,0,0,0,0,0,> 10 µM,> 10 µM,> 10 µM,> 10 µM,> 10 µM
NC(=O)c1ccccc1O [salicylamide],105%,105%,92%,100%,104%,97.9%,108%,95.6%,102%,98.9%,98%,93.9%,102%,97.9%,93%,93.6%,99%,78.2%,84.8%,79.2%,98.5%,99.6%,98.5%,91.2%,99.7%,0,0,0,5.7,0,> 10 µM,> 10 µM,> 10 µM,> 10 µM,> 10 µM
CCCC[P+](CCCC)(CCCC)Cc1ccc(NC(=O)[C@H](Cc2ccc3ccccc3c2)N/C(=N/C2CCCCC2)NC2CCCCC2)cc1,94.7%,91.2%,97.5%,97.4%,86.2%,98.7%,99.7%,96.5%,96.6%,88.9%,102%,97.7%,107%,100%,90.7%,90.8%,100%,87.9%,102%,81.4%,95.5%,107%,117%,97.3%,88.5%,0,0,0,0.4,0.1,> 10 µM,> 10 µM,> 10 µM,> 10 µM,> 10 µM
CCOc1cc([C@@H](CS(C)(=O)=O)N2C(=O)c3cccc(NC(C)=O)c3C2=O)ccc1OC [apremilast],102%,108%,89.8%,99.9%,108%,93.1%,101%,97.8%,92.7%,99.1%,104%,104%,98.7%,99.6%,99.6%,93.4%,100%,98.8%,97.3%,106%,102%,95%,101%,84.1%,100%,0,0,0,0,0,> 10 µM,> 10 µM,> 10 µM,> 10 µM,> 10 µM
Cc1cc(O)c2c(c1)C(=O)c1cc(O)cc(O)c1C2=O [emodin],93.6%,104%,95%,94.2%,102%,94.2%,103%,93.8%,101%,103%,103%,95%,97.1%,100%,106%,95.4%,91%,92.8%,93.9%,97%,105%,96.7%,105%,98.5%,106%,0,0,0,0,0,> 10 µM,> 10 µM,> 10 µM,> 10 µM,> 10 µM
